Data published in publication PMC3688580, “Crystal Structure, SAXS and Kinetic Mechanism of Hyperthermophilic ADP-Dependent Glucokinase from Thermococcus litoralis Reveal a Conserved Mechanism for Catalysis” (PLoS ONE, 2013).
Values belong to the compound of their own block, whether it stands above or below them.

Experiments:
[1] = biological target: T1, TlGK (ADP-dependent glucokinase from Thermococcus litoralis) (Thermococcus litoralis, UniProt Q7M537); assay: X-ray crystal structure […] Å; SAXS; assay type: binding
T1 construct: gene glkA; recombinant, purified from LB culture as in Merino et al. (heat shock, ammonium sulfate, two chromatographic steps); two-domain enzyme
T1 sequence (Q7M537 whole entry): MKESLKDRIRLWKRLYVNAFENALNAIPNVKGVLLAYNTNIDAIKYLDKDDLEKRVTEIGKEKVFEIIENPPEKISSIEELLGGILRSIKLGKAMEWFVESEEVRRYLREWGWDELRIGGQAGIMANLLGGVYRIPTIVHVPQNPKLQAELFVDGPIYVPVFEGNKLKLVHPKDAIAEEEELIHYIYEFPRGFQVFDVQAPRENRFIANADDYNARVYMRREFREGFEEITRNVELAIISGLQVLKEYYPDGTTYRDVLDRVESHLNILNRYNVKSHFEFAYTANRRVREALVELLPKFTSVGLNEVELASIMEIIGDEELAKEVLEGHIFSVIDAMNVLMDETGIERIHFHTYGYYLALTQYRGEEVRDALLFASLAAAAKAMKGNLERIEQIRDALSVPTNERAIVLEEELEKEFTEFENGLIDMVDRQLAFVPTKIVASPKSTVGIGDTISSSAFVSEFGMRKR

[2] = biological target: T1, TlGK (ADP-dependent glucokinase from Thermococcus litoralis); assay: product inhibition, discontinuous pyruvate kinase / lactate dehydrogenase assay; assay type: biochemical; details: mixed type vs Mg·ADP and vs D-glucose; read-out: inhibition constants
[3] = biological target: T1, TlGK (ADP-dependent glucokinase from Thermococcus litoralis); assay: isothermal titration calorimetry (data not shown); also SAXS; assay type: binding; details: absence of D-glucose; active site; MgADP
[4] = biological target: T1, TlGK (ADP-dependent glucokinase from Thermococcus litoralis); assay: product inhibition, G6PDH-coupled assay; assay type: biochemical; details: competitive vs Mg·ADP, mixed vs D-glucose; Mg·AMP; pH 7.8; 40 °C

Ki [2]: 782 µM
Structure (SMILES): O=P(O)(O)OC[C@H]1OC(O)[C@H](O)[C@@H](O)[C@@H]1O (stereo partly drawn) [D-glucose-6-P]

X-ray crystal structure 2.58 Å; SAXS ([1]; ternary complex with Mg·ADPβS, active site): 4B8S (TlGK·Mg·ADPβS·D-glucose)
Structure (SMILES): OC[C@H]1OC(O)[C@H](O)[C@@H](O)[C@@H]1O (stereo partly drawn) [D-glucose]

The remaining lines, values behind:

Structure (SMILES): Nc1ncnc2c1ncn2[C@@H]1O[C@H](COP(=O)(O)OP(=O)(O)S)[C@@H](O)[C@H]1O (some centres unmarked) [ADPβS]
X-ray crystal structure 2.58 Å; SAXS ([1]; nonhydrolyzable ADP analog with D-glucose and Mg, beta-phosphate lacked density, modelled as AMP): 4B8S (TlGK·Mg·ADPβS·D-glucose)

Structure (SMILES): Nc1ncnc2c1ncn2[C@@H]1O[C@H](COP(=O)(O)OP(=O)(O)O)[C@@H](O)[C@H]1O [Mg·ADP]
dissociation constant [3]: isothermal titration calorimetry experiments demonstrated binding of MgADP to the enzyme

Structure (SMILES): Nc1ncnc2c1ncn2[C@@H]1O[C@H](COP(=O)(O)O)[C@@H](O)[C@H]1O [Mg·AMP]
inhibition constants [4]: Mg·AMP behaves as a competitive inhibitor of Mg·ADP
